The nature of this series: solubility of crystalline zoledronic acid trihydrate compared with the monohydrate. The format is physicochemical. As to conditions: relative to zoledronic acid monohydrate; solvent and temperature not stated.

With `O=P(O)(O)C(O)(Cn1ccnc1)P(=O)(O)O` [zoledronic acid trihydrate, (1-Hydroxy-2-imidazol-1-yl-phosphonoethyl) phosphonic acid], the solubility result is listed as “substantially equal to that of the monohydrate”.

(Values after patent US20080255366A1, “Crystalline Trihydrate of Zoledronic Acid” (DR. REDDY'S LABORATORIES LIMITED, priority 2005, published 2008).)
